Results from paper PMC11988454, “Discovery of synthetic small molecules targeting the central regulator of Salmonella pathogenicity” (Science Advances, 2025).

Legend:
[1] = biological target: T1, HilC (Salmonella typhimurium, UniProt E1WAB2); assay: nanoDSF thermal stability, HilC; type: binding, S. Typhimurium
T1 construct: His6 followed by TEV protease cleavage site (N, cleaved yes); made in house; host or cells: E. coli C41(DE3)
Experimental: Thermal stability of proteins was determined using nanoDSF, with runs performed on a Prometheus NT.48 (NanoTemper Technologies). A twofold serial dilution series of C26 was prepared in DMSO. C26 was added to HilD or HilC (5 μM) in SEC buffer, giving a final DMSO concentration of 1% (v/v). Samples were incubated for >20 min at r.t. and centrifuged for 2 min prior to loading of standard capillaries (no. PR-C002). Samples were heated from 20° to 80°C with a temperature gradient of 0.5°C min^−1. Melting temperatures were calculated from changes in the fluorescence ratio (350/330 nm), using PR.Stability Analysis v1.0.3 and a temperature range of 40° to 70°C for curve fitting. Data analysis was performed using Prism 8.4 (GraphPad). The change in HilD melting temperature, Tm, was fitted as a function of ligand concentration, using Eqs. 1 and 2 to yield apparent affinity (Kd,app) values Tm{[L]0}=Tm,lower+(Tm,upper−Tm,lower)*(1−α{[L]0}) (1) α{[L]0}=[P]t−Kd−[L]t+{[P]t+[L]t+Kd,app}^2−{4[P]t[L]t}/2[P]t (2) where [P]t and [L]t are the total protein and ligand concentrations, respectively.

[2] = tested on: T3SS-1 (SipA-HiBiT injection into HeLa cells); assay: SipA-HiBiT injection assay (split NanoLuc HiBiT/LgBiT); type: cell-based, S. Typhimurium
Experimental: SipA injection assay was performed using the split-Nanoluc (HiBiT/LgBiT) system as described previously ([37], [38]). In brief, NanoLuc is split into two parts: LgBiT, comprising 10 of the 11 β strands of the luciferase, and HiBiT, a short peptide with high affinity to LgBiT, contributing the missing β strand to make a functional luciferase. S. Typhimurium strains expressing SipA-HiBiT were grown in LB supplemented with 0.3 M NaCl and either compound at different concentrations or 1% (v/v) DMSO. Cultures were incubated at 37°C with shaking at 180 rpm until an OD600 of 0.9 was reached. Bacteria were then pelleted and washed twice with Hanks’ balanced salt solution (HBSS). The bacterial suspension was diluted to obtain a multiplicity of infection (MOI) of 50 and then used to infect the LgBiT-expressing HeLa cell. Luminescence was measured using a Tecan Sparc Multimode reader.

[3] = biological target: T2, HilD (Salmonella typhimurium, UniProt E1WAC0); assay: Whole-cell HilD activity assay (PhilA-sfGFP activation); type: cell-based, S. Typhimurium
T2 construct: endogenous in cells; host or cells: S. Typhimurium SL1344 strain PhilA-sfGFP
Experimental: A whole-cell reporter gene assay was used to quantify HilD transcriptional activity. Strain PhilA-sfGFP and the isogenic ΔhilD PhilA-sfGFP were used for this purpose. Cultures were performed in 1 ml of LB supplemented with 0.3 M NaCl. Compounds at different concentrations or 1% (v/v) DMSO were added to the corresponding tubes. Cultures were incubated at 37°C and 180 rpm for 5 hours. Cells were pelleted, resuspended in 100 μl of PBS, and then transferred into a 96-well black clear-bottom plate (Thermo Fisher Scientific, USA). Fluorescence intensity was measured with a Tecan Spark microplate reader with an excitation wavelength of 485 nm and an emission wavelength of 510 nm. Dose-response curves and IC50 values were calculated using CDD Vault.

[4] = tested on: HilD mutants; assay: Alanine scan, plasmid-based whole-cell PhilA activation assay; design: species or system S. Typhimurium; conditions: C26 100 μM
Experimental: A plasmid-based assay in a ΔSPI-1 background strain was developed to facilitate the introduction of point mutations in hilD. The Rha cassette (rhaS, rhaR, and Prha) was first deleted from the pT10 backbone ([67]). The fragment PhilD-hilD-PhilA-sfGFP was then inserted upstream of the terminator rrnB. hilD was then deleted from the resulting plasmid to serve as a negative control. Site-directed mutagenesis was performed using KOD polymerase (Novagen). The cell-based fluorescence assay was performed as described above. Statistical analysis was performed by applying a first Bonferroni’s multiple comparisons test to compare treated and untreated conditions within each strain (shown in Fig. 4E) and a second same test to compare the treated mutants to the treated WT condition. The absence of significance in both tests corresponds to mutations inactivating HilD. Significance in the first but not the second test corresponds to a phenotype similar to that of the WT.

[5] = tested on: macrophages RAW 264.7; assay: In vitro toxicity, CellTox Green Cytotoxicity Assay, macrophages; type: cell-based; conditions: RAW 264.7, 6 hours exposure
Experimental: The screening of in vitro toxicity of the compound analogs was performed with the CellTox Green Cytotoxicity Assay (Promega, USA) according to the manufacturer’s instructions. Cells (10^4 cells per well) were seeded into a 96-well plate and incubated for 24 hours at 37°C, 5% (v/v) CO2. Cells were then treated with the compound at different concentrations or 1% (v/v) DMSO in Dulbecco’s modified Eagle’s medium (DMEM) without phenol red at the desired exposure time. Fluorescence intensity was measured with a TECAN Spark microplate reader. […] page 4: […] 0 10000 20000 30000 40000 50000 Compound concentration (µM) Cytotoxicity (RFU) Fig. S3. […] Cytotoxicity Assay. Fluorescence was measured as a readout for cytotoxicity at 485Ex/520Em. N = 3 biological replicates. (1 picture or pasted object on this page, not shown here)

T2 sequence (E1WAC0 whole entry): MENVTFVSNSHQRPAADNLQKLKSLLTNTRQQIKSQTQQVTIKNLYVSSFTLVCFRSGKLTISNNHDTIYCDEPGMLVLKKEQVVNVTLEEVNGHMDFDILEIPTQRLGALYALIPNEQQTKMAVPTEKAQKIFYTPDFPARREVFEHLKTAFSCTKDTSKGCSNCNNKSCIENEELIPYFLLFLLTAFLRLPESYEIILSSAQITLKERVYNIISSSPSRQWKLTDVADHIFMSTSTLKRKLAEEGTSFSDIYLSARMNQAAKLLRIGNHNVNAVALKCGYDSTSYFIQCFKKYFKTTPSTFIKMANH
T1 sequence (E1WAB2 whole entry): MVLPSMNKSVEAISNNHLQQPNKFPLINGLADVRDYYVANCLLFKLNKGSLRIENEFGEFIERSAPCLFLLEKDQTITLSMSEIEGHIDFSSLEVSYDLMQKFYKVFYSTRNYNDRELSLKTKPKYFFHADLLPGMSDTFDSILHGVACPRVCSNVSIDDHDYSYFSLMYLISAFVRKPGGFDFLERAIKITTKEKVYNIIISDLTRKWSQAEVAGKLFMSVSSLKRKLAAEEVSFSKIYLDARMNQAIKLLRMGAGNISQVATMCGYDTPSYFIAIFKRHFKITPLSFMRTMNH

Structure (SMILES): CN(CC(=O)NCc1ccc2c(c1)OCO2)Cc1ccc(Br)s1 [C26, N-(benzo[d][1,3]dioxol-5-ylmethyl)-2-{[(5-bromothiophen-2-yl)methyl](methyl)amino}acetamide]
- thermal stability of HilC [1]: no effect on the thermal stability
- residual SipA injection ([2]; C26 100 μM added to bacterial culture, 1 hour postinfection, MOI 50): 11%
- SipA injection, % of the untreated bacteria ([2]; C26 100 μM only in infection inoculum, 1 hour postinfection, MOI 50): 48%
- SipA injection into HeLa cells over a 5-hour infection time ([2]; C26 added to bacterial culture): dose-dependent decrease
- IC50 [3]: 16.9 µM
- sensitivity of HilD I42A, I100A, N260A, K264A to C26 [4]: partial loss of sensitivity
- sensitivity of HilD L45A, Y46A, F98A, E102A, Y212A to C26 [4]: full loss of sensitivity
- toxicity in macrophages [5]: No toxicity was observed
